IC50 data for 66 molecules are collected here from US20180044343A1, “BICYCLIC IMIDAZOLO DERIVATIVE” (Sumitomo Dainippon Pharma Co., Ltd., priority 2015, published 2018).

For orientation: IC50 means the point on the concentration scale where inhibition reaches its midpoint.

For the assay, the target named is PDE1B (Homo sapiens, UniProt Q01064). Kind of assay: In vitro HTRF PDE1 inhibition assay (PDE1B). In kind it is biochemical. To be noted: in vitro PDE1B HTRF Assay; read-out: IC50.
Sequence of PDE1B (Q01064 whole entry): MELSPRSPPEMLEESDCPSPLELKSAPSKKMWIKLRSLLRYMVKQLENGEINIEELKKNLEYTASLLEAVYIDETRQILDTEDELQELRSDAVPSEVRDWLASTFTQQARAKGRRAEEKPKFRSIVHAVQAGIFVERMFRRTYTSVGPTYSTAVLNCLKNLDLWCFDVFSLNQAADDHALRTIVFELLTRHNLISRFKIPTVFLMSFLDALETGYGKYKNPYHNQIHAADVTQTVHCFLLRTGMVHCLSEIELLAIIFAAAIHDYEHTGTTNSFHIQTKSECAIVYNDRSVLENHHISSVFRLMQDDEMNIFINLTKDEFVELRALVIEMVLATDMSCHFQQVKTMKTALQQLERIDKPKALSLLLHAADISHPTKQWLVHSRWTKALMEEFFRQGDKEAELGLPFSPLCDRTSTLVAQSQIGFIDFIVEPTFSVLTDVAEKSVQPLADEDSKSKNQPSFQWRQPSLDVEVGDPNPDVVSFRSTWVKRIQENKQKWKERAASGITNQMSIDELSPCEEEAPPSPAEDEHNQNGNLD

Source text: The HTRF PDE1 assay utilized the HTRF (Homogenous Time Resolved Fluorescence) technology, which is based on the competition between unlabeled cyclic nucleotide and cyclic nucleotide labeled with XL665 for the binding to cyclic nucleotide-specific antibody labeled with cryptate. The HTRF signal is thus inversely proportional to the concentration of cyclic nucleotide being measured. Since phosphodiesterases break down cyclic nucleotides, the HTRF signal was used to determine PDE activity.
The Cisbio cGMP HTRF assay kit (Cat no: 62GM2PEC) was utilized. Cyclic GMP was diluted to 200 nM in HTRF assay buffer (1 mM CaCl2, 10 mM MgCl2, 10 mM Tris-HCl, 0.1% BSA, pH 7.4). […] PDE (1A3, 1B or 1C) was diluted to 2× working concentration in HTRF assay buffer with 2 μg/ml Calmodulin, and 10 μl was added to initiate the reaction. The plate was then incubated for 45 minutes at 27° C. d2-Labelled cyclic GMP and anti-cGMP cryptate were diluted in 50 mM phosphate buffer, 0.8 M KF, 1% Triton X100, 0.2% BSA, pH 7.0. Following incubation 10 μl d2-cGMP, then 10 μl anti cGMP cryptate were added to each well and the plate was incubated for 60 minutes at room temperature. The plate was then read on Perkin Elmer EnVision at 2 different FRET readings ex/em 340 nm/665 nm and 340 nm/615 nm.

Consider `COCCn1c(OCC2CCC(F)(F)CC2)nn2c(C3CCOCC3)ncc2c1=O` [Example 277], for which the IC50 lay within 1000 to 10000 nM.
Turning to `CCn1c(OCCc2ccccc2F)nn2c(C3CCOCC3)ncc2c1=O` [Example 74], the IC50 was under 1000 nM.
To `CCn1c(OC[C@H]2CC[C@@H](C(F)(F)F)CC2)nn2c(C3CCOCC3)ncc2c1=O` [Example 252] belongs under 1000 nM; to `CC(=O)N1CCN(c2nn3c(C4CCOCC4)ncc3c(=O)n2C)CC1` [Example 195], under 1000 nM; to `Cc1ccc(CNc2nn3c(C(C)C)ncc3c(=O)n2C)cn1` [Example 155], under 1000 nM.
To `CCn1c(COc2ccc(F)cc2)nn2c(C3CCOCC3)ncc2c1=O` [Example 259, 3-Ethyl-2-[(4-fluorophenoxy)methyl]-7-(tetrahydro-2H-pyran-4-yl)imidazo[5,1-f][1,2,4]triazin-4(3H)-one] belongs under 1000 nM; to `Cn1c(OCC23CC4CC(CC(C4)C2)C3)nn2c(C3CCOCC3)ncc2c1=O` [Example 298], under 1000 nM; to `Cc1ccc(CNc2nn3c(C(C)C)ncc3c(=O)n2C)nc1` [Example 153], under 1000 nM.
The value for `CCOC[C@H]1CC[C@@H](Oc2nn3c(C4CCOCC4)ncc3c(=O)n2C)CC1` [Example 320] was under 1000 nM; that for `CCO[C@H]1CC[C@H](COc2nn3c(C4CCOCC4)ncc3c(=O)n2C2CC2)CC1` [Example 291] was under 1000 nM.
Turning to `CC(C)Cn1c(N2CCCC2)nn2c(C3CCOCC3)ncc2c1=O` [Example 208], the half-inhibitory concentration (IC50) was in the range of 1000 to 10000 nM.
For `CCn1c(OCC2CC(F)(F)C2)nn2c(C3CCOCC3)ncc2c1=O` [Example 87], the IC50 is under 1000 nM.
The value for `CCn1c(COC2CCC(F)(F)CC2)nn2c(C3CCOCC3)ncc2c1=O` [Example 260, 2-{[(4,4-Difluorocyclohexyl)oxy]methyl}-3-ethyl-7-(tetrahydro-2H-pyran-4-yl)imidazo[5,1-f][1,2,4]triazin-4(3H)-one] was under 1000 nM; that for `CCn1c(OCCc2cccc(F)c2)nn2c(C3CCOCC3)ncc2c1=O` [Example 75] was under 1000 nM.
The value for `Cn1c(CN2C(=O)c3ccccc3C2=O)nn2c(C3CCCC3)ncc2c1=O` [Example 234] was under 1000 nM; that for `CCn1c(OCC2CCC(F)(F)CC2)nn2c(C3CCOCC3)nc(Cl)c2c1=O` [Example 119, 5-chloro-2-[(4,4-difluorocyclohexyl)methoxy]-3-ethyl-7-(tetrahydro-2H-pyran-4-yl)-imidazo[5,1-f][1,2,4]triazin-4(3H)-one] was under 1000 nM; that for `CC(C)COc1nn2c(C(C)C)ncc2c(=O)n1C` [Example 11] was under 1000 nM.
The value for `CC(C)c1ncc2c(=O)n(C)c(N[C@H]3CCCc4ccccc43)nn12` [Example 145] was under 1000 nM.
As for `CCn1c(OCc2cc(F)ccc2F)nn2c(C3CCOCC3)ncc2c1=O` [Example 57], the half-maximal inhibitory concentration (IC50) was under 1000 nM.
The value for `Cn1c(OCCCc2cccnc2)nn2c(C3CCOCC3)ncc2c1=O` [Example 46] was under 1000 nM; that for `Cc1cccc(CNc2nn3c(C(C)C)ncc3c(=O)n2C)n1` [Example 137, 3-Methyl-2-{[(6-methylpyridin-2-yl)methyl]amino}-7-(propan-2-yl)imidazo[5,1-f][1,2,4]triazin-4(3H)-one] was under 1000 nM.
Consider `CCn1c(OCc2ccc(-c3ccc(F)cc3)cc2)nn2c(C3CCOCC3)ncc2c1=O` [Example 80], for which the IC50 was 1000 to 10000 nM.
To `CC(C)c1ncc2c(=O)[nH]c(N3CCCC3c3ccccc3Cl)nn12` (stereo not drawn) [Example 132] belongs under 1000 nM.
The value for `CCOC[C@H]1CC[C@@H](Oc2nn3c(C4CCOCC4)ncc3c(=O)n2CC)CC1` [Example 321] was under 1000 nM; that for `CC(C)c1ncc2c(=O)[nH]c(N3CCCC3c3ccc(Cl)cc3)nn12` (stereo not drawn) [Example 134] was under 1000 nM; that for `CC(C)c1ncc2c(=O)n(C)c(NCCc3ccccn3)nn12` [Example 151] was under 1000 nM.
Take `O=c1c2cnc(C3CCOCC3)n2nc(N2CCCC2)n1Cc1ccc(Cl)cc1` [Example 203]: the IC50 was under 1000 nM.
On to `Cn1c(COc2ccc(F)cc2)nn2c(C3CCCC3)ncc2c1=O` [Example 228], for which the half-maximal inhibitory concentration (IC50) lay within 1000 to 10000 nM.
For the molecule `COCC(=O)N1CCCN(c2nn3c(C4CCOCC4)ncc3c(=O)n2C)CC1` [Example 221, 2-[4-(Methoxyacetyl)-1,4-diazepan-1-yl]-3-methyl-7-(tetrahydro-2H-pyran-4-yl)imidazo[5,1-f][1,2,4]triazin-4(3H)-one], the IC50 lay within 1000 to 10000 nM.
To `CCn1c(OCC(C)C)nn2c(C3CCOCC3)ncc2c1=O` [Example 55] belongs under 1000 nM; to `O=c1c2cnc(C3CCOCC3)n2nc(OCCc2ccc(Cl)cc2)n1CC1CC1` [Example 98], under 1000 nM; to `COc1nn2c(C3CCOCC3)ncc2c(=O)n1CC1CC1` [Example 272], under 1000 nM.
To `Cn1c(NCc2ccc(Cl)cn2)nn2c(C3CCC3)ncc2c1=O` [Example 205] belongs under 1000 nM; to `CCn1c(OCC2CCC(F)(F)CC2)nn2c(N3CCCC3)ncc2c1=O` [Example 332, 2-[(4,4-Difluorocyclohexyl)methoxy]-3-ethyl-7-(pyrrolidin-1-yl)imidazo[5,1-f][1,2,4]triazin-4(3H)-one], 10000 to 100000 nM; to `CC(C)c1ncc2c(=O)n(C)c(NCc3ccccn3)nn12` [Example 150], under 1000 nM.
To `CCn1c(OCc2cccnc2)nn2c(C(C)C)ncc2c1=O` [Example 19] belongs under 1000 nM; to `O=c1c2cnc(C3CCOCC3)n2nc(OCC2CCC(F)(F)CC2)n1CC1CCC(F)(F)CC1` [Example 104], under 1000 nM.
Take `COc1ccc(CNc2nn3c(C(C)C)ncc3c(=O)n2C)cc1` [Example 140]: the IC50 is under 1000 nM.
To `CC(C)c1ncc2c(=O)n(C)c(OCc3cccnc3)nn12` [Example 5] belongs under 1000 nM; to `CC(C)c1ncc2c(=O)[nH]c(N3CCC[C@@H]3c3ccccc3)nn12` [Example 130], under 1000 nM; to `Cc1ccc(CNc2nn3c(C4CCC4)ncc3c(=O)n2C)nc1` [Example 204], under 1000 nM.
The value for `CCn1c(OCc2ccc(F)cc2)nn2c(C3CCOCC3)ncc2c1=O` [Example 56] was under 1000 nM; that for `Cn1c(CCc2ccccn2)nn2c(C3CCOCC3)ncc2c1=O` [Example 244, 3-Methyl-2-[2-(pyridin-2-yl)ethyl]-7-(tetrahydro-2H-pyran-4-yl)imidazo[5,1-f][1,2,4]triazin-4(3H)-one] was under 1000 nM; that for `CCn1c(OCC2CCC(F)(F)CC2)nn2c(C3CCOCC3)ncc2c1=S` [Example 123, 2-[(4,4-Difluorocyclohexyl)methoxy]-3-ethyl-7-(tetrahydro-2H-pyran-4-yl)imidazo[5,1-f][1,2,4]triazin-4(3H)-thione] was under 1000 nM.
As for `CC(C)c1ncc2c(=O)n(C)c(NCc3ccc(Cl)cc3)nn12` [Example 141], the IC50 is under 1000 nM.
The value for `CC(C)c1ncc2c(=O)n(C)c(N[C@@H]3CCCc4ccccc43)nn12` [Example 144] was under 1000 nM.
To `Cc1ccc(COc2nn3c(C(C)C)ncc3c(=O)n2C)nc1` [Example 2, 3-Methyl-2-[(5-methylpyridin-2-yl)methoxy]-7-(propan-2-yl)imidazo[5,1-f][1,2,4]triazin-4(3H)-one] belongs under 1000 nM; to `CC(C)c1ncc2c(=O)n(C)c(COc3ccc(Cl)cc3)nn12` [Example 223, 2-[(4-Chlorophenoxy)methyl]-3-methyl-7-(propan-2-yl)imidazo[5,1-f][1,2,4]triazin-4(3H)-one], 1000 to 10000 nM; to `CC(C)c1ccc([C@H]2CCCN2c2nn3c(C(C)C)ncc3c(=O)n2C)cc1` [Example 166], under 1000 nM.
To `O=c1[nH]c(N2CCCC2c2cccc(Cl)c2)nn2c(C3CCOCC3)ncc12` (stereo not drawn) [Example 128] belongs under 1000 nM.
Take `COc1nn2c(C3CCOCC3)ncc2c(=O)n1Cc1ccccc1` [Example 107]: the concentration for half-maximal inhibition (IC50) was under 1000 nM.
The value for `Cn1c(OCc2ccc(OC(F)(F)F)cc2)nn2c(C3CCOCC3)ncc2c1=O` [Example 293] was under 1000 nM; that for `COc1ccc(Cn2c(OC)nn3c(C4CCOCC4)ncc3c2=O)cc1` [Example 265] was under 1000 nM; that for `CCCn1c(OC)nn2c(C3CCOCC3)ncc2c1=O` [Example 270] was under 1000 nM.
The value for `Cn1c(OCc2ccncc2)nn2c(C3CCOCC3)ncc2c1=O` [Example 25] was under 1000 nM.
To `CCn1c(OCc2ccc(-c3ccc(Cl)cc3)cc2)nn2c(C3CCOCC3)ncc2c1=O` [Example 79] belongs under 1000 nM.
Turning to `O=c1c2cnc(C3CCOCC3)n2nc(N2CCCC2)n1Cc1ccccc1` [Example 202], the IC50 was under 1000 nM.
To `Cn1c(OCCCc2ccc(F)cn2)nn2c(C3CCOCC3)ncc2c1=O` [Example 41] belongs under 1000 nM; to `O=c1c2cnc(C3CCOCC3)n2nc(OCc2ccc(-c3ccccn3)cc2)n1CC1CC1` [Example 97], under 1000 nM.
As for `CCn1c(OCCCOC)nn2c(C3CCOCC3)ncc2c1=O` [Example 62], the IC50 was under 1000 nM.
On to `COc1nn2c(C3CCOCC3)ncc2c(=O)n1Cc1ccccn1` [Example 268], for which the IC50 is 1000 to 10000 nM.
To `Cn1c(OC[C@H]2CC[C@H](C(F)(F)F)CC2)nn2c(C3(O)CCCCC3)ncc2c1=O` [Example 327, 7-(1-Hydroxycyclohexyl)-3-methyl-2-{[trans-4-(trifluoromethyl)cyclohexyl]-methoxy}imidazo[5,1-f][1,2,4]triazin-4(3H)-one] belongs 1000 to 10000 nM.
To `COc1nn2c(C(C)C)ncc2c(=O)n1Cc1ccccn1` [Example 262] belongs under 1000 nM; to `CCn1c(OCCCc2cccc(C)n2)nn2c(C3CCOCC3)ncc2c1=O` [Example 72], under 1000 nM; to `CC(C)c1ncc2c(=O)n(C)c(NCc3cccnc3)nn12` [Example 152], under 1000 nM.
The value for `Cn1c(CCc2ccc(F)cc2)nn2c(C3CCOCC3)ncc2c1=O` [Example 241, 2-[2-(4-Fluorophenyl)ethyl]-3-methyl-7-(tetrahydro-2H-pyran-4-yl)imidazo[5,1-f][1,2,4]triazin-4(3H)-one] was under 1000 nM.
